{
  "source": "patent US6627621B2",
  "about": "“Neutrophil function inhibitors” (Dainichieseika Color & Chemicals Mfg. Co., Ltd., priority 2001, dated 2003)",
  "type_in_all_cases": "cell-based, Guinea pig",
  "key": {"[1]": {"test_system": "neutrophils", "assay": "Ingesting ability of neutrophils (ingestion of opsonized zymosan, ingestion index)", "settings": "0.01, 0.1 and 1 mM, 37° C. 20 minutes preincubation; OPZ (1:6) 30 minutes; FIG. 3", "method": "(§1) A glycogen solution (0.17% glycogen-0.9% NaCl solution) was administered into the abdominal cavity of a Guinea pig. About 15 hours later, the abdominal cavity was washed with a 0.4% sodium citrate-0.9% NaCl solution to collect an exudate. The exudate contained neutrophils of 95% or higher purity. After the abdominal cavity exudate was washed twice with phosphate buffer (pH 7.4), the neutrophils were suspended in phosphate buffer (pH 7.4) to prepare a neutrophil suspension. Inhibiting effects of a glucosamine salt on neutrophil functions were investigated with respect to the generation of active oxygen, ingesting effect and extra-cellular releasing effect on granular components by methods to be described subsequently herein. Data are each shown as a mean ± standard deviation S.D. of three or more samples. Further, a test was conducted using an AVOVA. Glucosamine hydrochloride was added at 0.01 mM, 0.1 mM and 1 mM to aliquots of a neutrophil suspension (neutrophil concentration: 10^7 cells/mL), respectively, followed by incubation at 37° C. for 20 minutes. To each of the reaction mixtures, opsonized zymosan (OPZ; count ratio of OPZ to neutrophils: 1:6) was added, followed by a reaction for 30 minutes. The count of the yeast ingested by neutrophils was determined under a microscope, and was expressed in terms of an ingestion index."}, "[2]": {"test_system": "neutrophils", "assay": "Emigrating ability of neutrophils (Boyden's chamber, C5a as emigrating factor)", "settings": "0.01, 0.1 and 1 mM, 37° C. 20 minutes preincubation, 3 μm membrane, FIG. 5", "method": "A glycogen solution (0.17% glycogen-0.9% NaCl solution) was administered into the abdominal cavity of a Guinea pig. About 15 hours later, the abdominal cavity was washed with a 0.4% sodium citrate-0.9% NaCl solution to collect an exudate. The exudate contained neutrophils of 95% or higher purity. After the abdominal cavity exudate was washed twice with phosphate buffer (pH 7.4), the neutrophils were suspended in phosphate buffer (pH 7.4) to prepare a neutrophil suspension. The emigrating ability of neutrophils was measured by using as an emigrating factor the component factor C5 a generated by reacting fresh serum with a yeast. Described specifically, glucosamine hydrochloride was added at 0.01 mM, 0.1 mM and 1 mM to aliquots of a neutrophil suspension (neutrophil concentration: 3×10^6 cells/mL), respectively, followed by incubation at 37° C. for 20 minutes. The reaction mixtures were separately placed in Boyden's chambers each of which was equipped with a nitrocellulose membrane of 3 μm in pore size, and were then incubated at 37° C. for 20 minutes. After the reaction, distances over which neutrophils had emigrated were measured under a microscope."}, "[3]": {"test_system": "neutrophils", "assay": "Extracellular release of granular enzyme lysozyme from neutrophils", "settings": "0.01, 0.1 and 1 mM, 37° C. 20 minutes preincubation; OPZ (1:6) 30 minutes; FIG. 4", "method": "as §1, with “[…] The reaction mixture was centrifuged, the supernatant was collected, and then, the activity” for “To each”, “granular enzyme, lysozyme, released to the outside” for “reaction mixtures, opsonized zymosan (OPZ; count ratio”, “cells” for “OPZ to neutrophils: 1:6)”, “measured” for “added, followed”, “calorimetrically quantitating dissolution” for “a reaction for 30 minutes. The count”, “Micrococcus lysodeikticus cells.” for “the yeast ingested by neutrophils was determined under a microscope, and was expressed in terms of an ingestion index.”"}, "[4]": {"test_system": "neutrophils", "assay": "Generation of active oxygen by neutrophils (cytochrome c reduction method)", "settings": "0.01, 0.1 and 1 mM, 37° C. 20 minutes preincubation", "method": "A glycogen solution (0.17% glycogen-0.9% NaCl solution) was administered into the abdominal cavity of a Guinea pig. About 15 hours later, the abdominal cavity was washed with a 0.4% sodium citrate-0.9% NaCl solution to collect an exudate. The exudate contained neutrophils of 95% or higher purity. After the abdominal cavity exudate was washed twice with phosphate buffer (pH 7.4), the neutrophils were suspended in phosphate buffer (pH 7.4) to prepare a neutrophil suspension.\nInhibiting effects of a glucosamine salt on neutrophil functions were investigated with respect to the generation of active oxygen, ingesting effect and extra-cellular releasing effect on granular components by methods to be described subsequently herein. Data are each shown as a mean ± standard deviation S.D. of three or more samples. Further, a test was conducted using an AVOVA.\nGlucosamine hydrochloride was added at 0.01 mM, 0.1 mM and 1 mM to aliquots of a neutrophil suspension (neutrophil concentration: 10^6 cells/mL), respectively, followed by incubation at 37° C. for 20 minutes. To each of the reaction mixtures, N-formyl-1-methionyl-1-leucyl-1-phenylalanine (FMLP; 10^−7 M) or opsonized zymosan (OPZ; count ratio of OPZ to neutrophils: 1:6) was added as an emigrating factor to stimulate neutrophils for 30 minutes. Generated active oxygen was measured by the cytochrome c reduction method. […]"}},
  "data": [
    {"compound": "Cl.N[C@H]1C(O)O[C@H](CO)[C@@H](O)[C@@H]1O", "note": "(some centres unmarked) [glucosamine hydrochloride, Glucosamine hydrochloride]", "values": [
      {"measurement": "ingestion of opsonized zymosan by neutrophils", "setting": "[1]", "value": "inhibited in a concentration-dependent manner"},
      {"measurement": "emigrating ability of neutrophils", "setting": "[2]", "value": "inhibited in a concentration-dependent manner"},
      {"measurement": "extracellular release of the granular enzyme (lysozyme) from neutrophils by opsonized zymosan", "setting": "[3]", "value": "significantly inhibited"},
      {"measurement": "formation of active oxygen by FMLP", "setting": "[4]; FMLP 10^-7 M stimulation 30 minutes, FIG. 1", "value": "inhibited in a concentration-dependent manner"},
      {"measurement": "formation of active oxygen by opsonized zymosan", "setting": "[4]; OPZ (1:6) stimulation 30 minutes, FIG. 2", "value": "inhibited in a concentration-dependent manner"}
    ]}
  ]
}
